Where two headings read alike, the source gives them in different places. Residues, ends and D or L forms follow the SMILES beside them. No end group written: not given here.
Columns and labels:
[1] = target: T1, purified human GAPDH (Homo sapiens, UniProt P04406); assay: Side effects: effect on GAPDH enzymatic activity (second screening B); assay type: biochemical; conditions: for 2nd. Screening Side effect Effect on GAPDH Activity (%) in vitro: 10 μM peptide, 0.01 μM GAPDH
Procedure: (§1) As the second screening, A) the viability of PC12 cells in the presence of a peptide, which represented cytotoxicity, B) effects on the GAPDH enzymatic activity, which represented side effects, and C) effects on amyloid formation, which represented specificity, were each investigated.
A 10 μM peptide was added to 0.01 μM purified human GAPDH, and the enzymatic activity of GAPDH was measured in accordance with a method described in Patent Document 1.

[2] = tested on: PC12 cells; assay: Cytotoxicity: viability of PC12 cells in the presence of peptide (second screening A); assay type: cell-based; conditions: FIG. 7
Procedure: as §1
(§2) PC12 cells cultured to 80% confluence were cultured at 37° C. for 72 hours in the presence of 50 μM peptide, and the cell viability was measured in accordance with the conventional method.

[3] = target: T1, purified human GAPDH; assay: GAPDH aggregation inhibitory activity (first screening, turbidity at 405 nm); assay type: biochemical; conditions: for 1st. Screening Potency Inhibitory activity (%) (50 μM at 48 h) in vitro: 50 μM peptide, 5 μM GAPDH, 37° C.
Procedure: As the first screening, GAPDH aggregation inhibitory activities, which represents potency, were measured. According to a method described in Patent Document 1, a peptide was added to a solution in which 5 μM purified human GAPDH was dissolved in Buffer G2 so that, the concentration of the peptide was 50 μM, and then incubated at 37° C. for 48 hours. Then the aggregation inhibitory rate of GAPDH was measured using the turbidity (absorbance at 405 nm) of the solution.

[4] = tested on: Aβ1-40 induced PC12 cell death; assay: Protective effects on amyloid β induced cell death in the presence of GAPDH-Seeds; assay type: cell-based; conditions: GAPDH-Seeds (1%), GAI-17 50 μM, FIG. 2
[5] = target: T2, Aβ25-35 (Homo sapiens, UniProt P05067); assay: Specificity: effect on amyloid formation (second screening C, fluorescence); assay type: biochemical; conditions: 25 μM amyloid β, 37° C., 1 hour
T2 construct: Aβ25-35
Procedure: as §1
A solution containing 25 μM […] was incubated at 37° C. for 1 hour, and formation of amyloid aggregates was evaluated using the fluorescence intensity from the solution in accordance with a method described in Patent Document 1.

[6] = Cytotoxicity: viability of PC12 cells in the presence of peptide (second screening A); assay type: cell-based; conditions: rat, PC12 cells
Procedure: as §1, §2

[7] = tested on: Aβ40-treated PC12 cells; assay: Cytoprotective effects on Aβ1-40 induced PC12 cell death (third screening); assay type: cell-based
[8] = tested on: stroke model mouse; assay: Cerebroprotective effects in a stroke model (MCAO); assay type: in vivo; conditions: 60 nmol/mouse intraventricular, FIG. 4
Procedure: To a stroke model mouse, 60 nmol/mouse of a peptide was intraventricularly administered, and the reduction in cerebral infarction volume and the improvement in neurological symptoms after 24 hours were determined. The stroke model mouse was prepared in accordance with a method by of Andrabi et al. (Andrabi et al., Nat Med., 2011, June; 17(6): 692-9). A mouse was maintained under the state of ischemia for 30 minutes, and then perfusion was re-started. The cerebral infarction volume was measured […] after ischemia started. Further, in accordance with the method by Andrabi et al. (supra), a neurological score was determined for neurological symptoms of the mouse to evaluate the improvement in neurological symptoms.

[9] = read-out: IC50 (MEAN ± S.E.) for the GAPDH aggregation inhibitory activity in vitro

T1 sequence (P04406 whole entry): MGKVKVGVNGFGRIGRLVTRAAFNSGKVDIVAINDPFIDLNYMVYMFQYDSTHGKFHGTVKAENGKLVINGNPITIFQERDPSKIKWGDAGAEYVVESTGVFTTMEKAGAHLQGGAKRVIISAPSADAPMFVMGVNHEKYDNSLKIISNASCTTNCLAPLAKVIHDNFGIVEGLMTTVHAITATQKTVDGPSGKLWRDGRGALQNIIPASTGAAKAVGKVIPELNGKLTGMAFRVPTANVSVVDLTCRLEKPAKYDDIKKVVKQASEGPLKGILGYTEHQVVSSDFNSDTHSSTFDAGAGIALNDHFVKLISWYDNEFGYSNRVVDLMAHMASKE

Compound | GAPDH enzymatic activity in the second screening ([1]; FIG. 7) | cytotoxicity in the second screening, compared with lead compound [2] | aggregation inhibitory activity in the first screening, compared with lead compound ([3]; FIG. 6) | IC50 [3, 9] [µM] | 2nd. Screening Side effect Effect on GAPDH Activity (%) in vitro [1] [%] | protective effects on amyloid β40 induced PC12 cell death [4] | 2nd. Screening Specificity Effect on Aβ25-35 amyloidogenesis (%) in vitro [5] [%] | viability at 72 h, 50 µM [6] [%] | 3rd. Screening Effectiveness Cytoprotection (%) in Aβ40-treated PC12 cells [7] [%] | cerebral infarction volume [8] | neurological symptoms ([8]; after 24 hours) | 1st. Screening Potency Inhibitory activity (%) (50 μM at 48 h) in vitro [3] | viability at 72 h, 50 µM ([6]; 50 μM peptide, 37° C., 72 hours, read-out: 2nd. Screening Cytotoxicity Cell viability (%) in PC12 cells) [%] | IC50 [3] [µM]
C[C@@H](O)CNC(=O)[C@H](CS)NCCCO [TN-101] | uninhibited GAPDH enzymatic activity | comparable with or smaller than those of the lead compound | superior to that of the lead compound | 0.9 ± 0.11 | – | – | – | – | – | – | – | – | – | –
C[C@@H](O)[C@H](NC(=O)[C@H](CS)NC(=O)[C@@H](N)CO)C(=O)O [GAI-17, SCT] (H-Ser-Cys-Thr-OH; N-terminus and C-terminus assumed) | – | – | – | 1.19 ± 0.15 | 97.9 ± 0.72 | protective effects | 102 ± 6.39 | 100 ± 0.76 | 99.4 ± 1.21 | decrease cerebral infarction volume | improve neurological symptoms | 97.7 ± 1.48 | – | –
SNASCTTNAL [GAI-1, SNASCTTNAL, reference compound] | – | – | – | – | 105 ± 1.80 | – | 103 ± 9.94 | – | 48.0 ± 3.85 | – | – | 53.2 ± 1.73 | 104 ± 1.37 | 50 ± 0.2

From patent USRE49579E1, “Non-peptidic GAPDH aggregation inhibitor” (University Public Corporation Osaka, priority 2015, dated 2023)
